Test results taken from patent US4994485A, “Thio compounds having fungicidal activity” (Duphar International Research B.V., priority 1986, dated 1991).

Assays:
Pythium spp. = assay: Protection of seedlings against plant-pathogenic soil fungus by seed treatment (beet); assay type: in vivo; details: after 3 weeks, 18°-22° C., untreated 72
Protocol: Test with respect to the protection of seedlings against a plant-pathogenicsoil fungus, namely Pythium spp., by means of a seed treatment.
The compounds to be tested are processed to compositions by pulverising them and then mixing them intimately with kaolin in the desired concentration (see Table B). Beet seed is treated with these compositions in a quantity of 6 g of composition per kg of seed and then sown in trays with soil which was seriously infested with Pythium spp. After 3 weeks in a glass-house at 18°-22° C. and a relative humidity of 70-100%, the percentage of non-emerged and diseased seedlings (damping-off) is determined. The results are recorded in Table B. For comparison, the known substance 2-methylsulphinyl-4-methyl-5-nitrothiazole(a) is also tested.

Fusarium culmorum [1] = assay: Protection of seedlings against plant pathogenic seed fungus by seed treatment (wheat); assay type: in vivo; details: wheat seed infested with Fusarium culmorum; 3 g composition (10% by weight in kaolin) per kg of seed; after three weeks, 8°-12° C.; untreated 67
Protocol: Test with respect to the protection of seedlings against a plant pathogenic seed fungus, namely Fusarium culmorum, by means of a seed treatment.
Wheat seed, infested with Fusarium culmorum, is treated with the substance to be tested in the form of a composi tion in a quantity of 3 g per kg of seed. The composition is obtained by pulverising the substance to be tested and then intimately mixing with kaolin in a concentration of 10% by weight. The seed thus treated is sown in a tray containing soil which is placed in a Wisconsin tank with a bottom temperature of 8°-12° C. After three weeks the number of emerged and healthy plants is determined. The emergence of healthy plants from untreated seed serves as control. For comparison, the known substances 2-methylsulphinyl-4-methyl-5-nitrothiazole (a), 2-methylsulphinyl-3-nitrothiophene (b) and 2-ethylsulphinyl-3-nitro-5-acetylthiophene (c) mentioned hereinbefore are also tested. In the examples, the numbers of the compounds refer to the specification.

Pythium splendens = assay: In vitro test on activity against Pythium splendens; assay type: cell-based; details: Globisporangium splendens, read-out: growth inhibition of the fungus
Fusarium culmorum [2] = assay: In vitro test on activity against Fusarium culmorum; assay type: cell-based; details: read-out: growth inhibition of the fungus
Pyrenophora graminea = assay: In vitro test on activity against Pyrenophora graminea; assay type: cell-based; details: 48 hours, 20° C., read-out: % growth inhibition of the fungus
Protocol: In vitro test on activity against Pyrenophora graminea.
(§1) The compound to be tested is processed in a culture medium consisting of 1% by weight of glucose, 0.2% by weight of a yeast extract (marmite), 0.5% by weight of a protein (pepton), 2.5% by weight of agar-agar, and 95.8% by weight of water, in petri dishes in concentrations of 3 and 10 ppm. The petri dishes are inoculated with the plant-pathogenic fungus Pyrenophora graminea and then kept at a temperature of 20° C. After 48 hours the growth-inhibiting activity of the compounds is determined visually. For comparison, the known substance (b) (see EXAMPLE XV) is also tested.

Leptosphaeria nodorum = assay: In vitro test on activity against Leptosphaeria nodorum; assay type: cell-based; details: Parastagonospora nodorum, read-out: growth inhibition of the fungus
Protocol: as §1
Compounds according to the invention are tested on i Leptosphaeria nodorum in the same manner as described in EXAMPLE XIX.

Rhizoctonia solani = assay: In vitro test on activity against Rhizoctonia solani; assay type: cell-based; details: read-out: growth inhibition of the fungus
Protocol: as §1, with “in petri dishes in concentrations of 3 and 10 ppm.” left out
Compounds according to the invention are tested on Rhizoctonia solani in the same manner as described in EXAMPLE XIX.

[3] = 600 mg of active substance per kg of seed
[4] = 1200 mg of active substance per kg of seed

CC(=O)c1cc(C#N)c([S+](C)[O-])s1 (stereo not drawn) [(1), 2-methylsulphinyl-3-cyano-5-acetylthiophene]
percentage damping-off (Pythium spp.; [3]): 8% | percentage damping-off (Pythium spp.; [4]): 7% | Percentage of emerged, healthy plants (Fusarium culmorum [1]): 91% | inhibition at 10 ppm (Pythium splendens): ≥ 95%

CC[S+]([O-])c1sc(C(C)=O)c(Cl)c1C#N (stereo not drawn) [(5), 2-ethylsulphinyl-3-cyano-4-chloro-5-acetylthiophene]
inhibition at 30 ppm (Fusarium culmorum [2]): ≥ 75% | inhibition at 3 ppm (Pyrenophora graminea): 54% | inhibition at 10 ppm (Pyrenophora graminea): 89% | percentage damping-off (Pythium spp.; [3]): 21% | percentage damping-off (Pythium spp.; [4]): 17% | Percentage of emerged, healthy plants (Fusarium culmorum [1]): 85% | inhibition at 30 ppm (Leptosphaeria nodorum): ≥ 85% | inhibition at 10 ppm (Pythium splendens): ≥ 95%

CC(=O)c1sc([S+](C)[O-])c(C#N)c1-c1ccc(Cl)cc1 (stereo not drawn) [(6), 2-methylsulphinyl 3-cyano-4-(4-chlorophenyl)-5-acetylthiophene]
inhibition at 3 ppm (Pyrenophora graminea): 54% | inhibition at 10 ppm (Pyrenophora graminea): 77% | inhibition at 10 ppm (Pythium splendens): ≥ 95%

CC[S+]([O-])c1sc(C(C)=O)cc1C#N (stereo not drawn) [(9), 2-ethylsulphinyl-3-cyano-5-acetylthiophene]
percentage damping-off (Pythium spp.; [3]): 15% | percentage damping-off (Pythium spp.; [4]): 11% | Percentage of emerged, healthy plants (Fusarium culmorum [1]): 85% | inhibition at 30 ppm (Leptosphaeria nodorum): ≥ 85% | inhibition at 10 ppm (Pythium splendens): ≥ 95%

COc1c(C#N)sc([S+](C)[O-])c1C#N (stereo not drawn) [(12), 2-methylsulphinyl-3,5-dicyano-4-methoxythiophene]
inhibition at 30 ppm (Fusarium culmorum [2]): ≥ 75% | percentage damping-off (Pythium spp.; [3]): 0% | percentage damping-off (Pythium spp.; [4]): 0% | Percentage of emerged, healthy plants (Fusarium culmorum [1]): 93% | inhibition at 30 ppm (Leptosphaeria nodorum): ≥ 85% | inhibition at 10 ppm (Pythium splendens): ≥ 95%

CCOc1c(C#N)sc([S+]([O-])CC)c1C#N (stereo not drawn) [(14), 2-ethylsulphinyl-3,5-dicyano-4-ethoxythiophene]
inhibition at 30 ppm (Fusarium culmorum [2]): ≥ 75% | percentage damping-off (Pythium spp.; [3]): 23% | percentage damping-off (Pythium spp.; [4]): 20% | Percentage of emerged, healthy plants (Fusarium culmorum [1]): 87% | inhibition at 30 ppm (Leptosphaeria nodorum): ≥ 85% | inhibition at 10 ppm (Pythium splendens): ≥ 95%

CSC(=C(C#N)c1ccc(Cl)c(Cl)c1)[S+](C)[O-] (stereo not drawn) [(15), α-cyano-β-merhylsulphinyl-β-methylthio-3,4-dichloro-styrene]
inhibition at 30 ppm (Rhizoctonia solani): ≥ 75% | inhibition at 30 ppm (Leptosphaeria nodorum): ≥ 85% | inhibition at 10 ppm (Pythium splendens): ≥ 95%

CSC(=C(C#N)c1ccc(Cl)cc1)[S+](C)[O-] (stereo not drawn) [(19), α-cyanoβ-methylsulphinyl-β-methylthio-4-chlorostyrene]
inhibition at 30 ppm (Fusarium culmorum [2]): ≥ 75% | inhibition at 30 ppm (Rhizoctonia solani): ≥ 75% | inhibition at 30 ppm (Leptosphaeria nodorum): ≥ 85% | inhibition at 10 ppm (Pythium splendens): ≥ 95%

C[S+]([O-])c1sc(C(=O)c2ccccc2)c(Cl)c1C#N (stereo not drawn) [(31), 2-methylsulphinyl-3-cyano-4-chloro 5-benzoylthiophene]
inhibition at 30 ppm (Fusarium culmorum [2]): ≥ 75% | inhibition at 10 ppm (Pyrenophora graminea): 77% | inhibition at 30 ppm (Leptosphaeria nodorum): ≥ 85% | inhibition at 10 ppm (Pythium splendens): ≥ 95%

CCCCCC[S+]([O-])c1sc(C#N)c(Cl)c1C#N (stereo not drawn) [(34), 2-n-hexylsulphinyl-3,5-dicyano-4-chlorothiophene]
inhibition at 30 ppm (Fusarium culmorum [2]): ≥ 75% | inhibition at 30 ppm (Rhizoctonia solani): ≥ 75% | inhibition at 30 ppm (Leptosphaeria nodorum): ≥ 85% | inhibition at 10 ppm (Pythium splendens): ≥ 95%

C[S+]([O-])c1sc(C#N)c(-c2ccc(Cl)cc2)c1C#N (stereo not drawn) [(35), 2-methylsulphinyl-3,5-dicyano-4-(4-chlorophenyl)thiophene]
inhibition at 30 ppm (Fusarium culmorum [2]): ≥ 75% | inhibition at 10 ppm (Pyrenophora graminea): 76% | inhibition at 30 ppm (Leptosphaeria nodorum): ≥ 85% | inhibition at 10 ppm (Pythium splendens): ≥ 95%

CCCCCCCC[S+]([O-])c1sc(C#N)c(Cl)c1C#N (stereo not drawn) [(36), 2-n-octylsulphinyl-3,5-dicyano-4-chlorothiophene]
inhibition at 30 ppm (Fusarium culmorum [2]): ≥ 75% | inhibition at 30 ppm (Rhizoctonia solani): ≥ 75% | inhibition at 30 ppm (Leptosphaeria nodorum): ≥ 85% | inhibition at 10 ppm (Pythium splendens): ≥ 95%

N#Cc1cc(C#N)c(S(=O)(=O)c2ccccc2)s1 [(45), 2-phenylsulphonyl-3,5-dicyanothiophene]
inhibition at 30 ppm (Fusarium culmorum [2]): ≥ 75% | inhibition at 30 ppm (Leptosphaeria nodorum): ≥ 85% | inhibition at 10 ppm (Pythium splendens): ≥ 95%

CC[S+]([O-])c1sc(C(=O)c2ccc(Cl)cc2)cc1C#N (stereo not drawn) [(47), 2-ethylsulphinyl-3-cyano-5-(4-chlorobenzoyl)thiophene]
inhibition at 30 ppm (Fusarium culmorum [2]): ≥ 75% | inhibition at 10 ppm (Pyrenophora graminea): 74% | inhibition at 30 ppm (Leptosphaeria nodorum): ≥ 85% | inhibition at 10 ppm (Pythium splendens): ≥ 95%

C[S+]([O-])c1sc(C(=O)c2ccccc2)cc1C#N (stereo not drawn) [(51), 2-methylsulphinyl-3-cyano-5-benzoylthiophene]
inhibition at 30 ppm (Fusarium culmorum [2]): ≥ 75% | inhibition at 10 ppm (Pyrenophora graminea): 71% | inhibition at 30 ppm (Leptosphaeria nodorum): ≥ 85%

CCSC(=C(C#N)c1ccc(Cl)cc1)[S+]([O-])CC (stereo not drawn) [(53), α-cyano-β-ethylsulphinyl-β-ethylthio-4-chlorostyrene]
inhibition at 30 ppm (Fusarium culmorum [2]): ≥ 75% | inhibition at 10 ppm (Pyrenophora graminea): 83% | inhibition at 30 ppm (Leptosphaeria nodorum): ≥ 85%

CCCC[S+]([O-])c1sc(C(C)=O)c(N)c1C#N (stereo not drawn) [(58), 2-n-butylsulphinyl-3 cyano-4-amino-5-acetylthiophene]
inhibition at 30 ppm (Fusarium culmorum [2]): ≥ 75% | inhibition at 30 ppm (Leptosphaeria nodorum): ≥ 85% | inhibition at 10 ppm (Pythium splendens): ≥ 95%

CC[S+]([O-])c1sc(C(=O)c2ccc(Cl)cc2)c(N)c1C#N (stereo not drawn) [(66), 2 ethylsulphinyl-3-cyano-4-amino-5-(4-chlorobenzoyl)thiophene]
inhibition at 10 ppm (Pyrenophora graminea): 84% | inhibition at 10 ppm (Pythium splendens): ≥ 95%

CCC[S+]([O-])c1sc(C(=O)c2ccccc2)c(N)c1C#N (stereo not drawn) [(67), 2-n-propylsulphinyl-3-cyano-4-amino-5-benzoylthiophene]
inhibition at 30 ppm (Fusarium culmorum [2]): ≥ 75% | inhibition at 30 ppm (Leptosphaeria nodorum): ≥ 85% | inhibition at 10 ppm (Pythium splendens): ≥ 95%

CC[S+]([O-])c1sc(C(=O)c2ccc(Cl)cc2)c(Cl)c1C#N (stereo not drawn) [(72), 2-ethylsulphinyl-3-cyano-4-chloro-5-(4-chlorobenzoyl)thiophene]
inhibition at 30 ppm (Fusarium culmorum [2]): ≥ 75% | inhibition at 10 ppm (Pyrenophora graminea): 70% | inhibition at 30 ppm (Leptosphaeria nodorum): ≥ 85% | inhibition at 10 ppm (Pythium splendens): ≥ 95%

COc1c(C(=O)c2ccccc2)sc([S+](C)[O-])c1C#N (stereo not drawn) [(74), 2-methylsulphinyl-3-cyano-4-methoxy-5-benzoylthiophene]
inhibition at 30 ppm (Fusarium culmorum [2]): ≥ 75% | inhibition at 30 ppm (Leptosphaeria nodorum): ≥ 85% | inhibition at 10 ppm (Pythium splendens): ≥ 95%

N#Cc1sc([S+]([O-])Cc2ccccc2)c(C#N)c1Cl (stereo not drawn) [(78), 2-benzylsulphinyl-3,5-dicyano-4-chlorothiophene]
inhibition at 30 ppm (Fusarium culmorum [2]): ≥ 75% | inhibition at 10 ppm (Pyrenophora graminea): 86% | inhibition at 10 ppm (Pythium splendens): ≥ 95%

CCCC[S+]([O-])c1sc(C#N)c(Br)c1C#N (stereo not drawn) [(79), 2-n-butylsulphinyl-3,5-dicyano-4-bromothiophene]
inhibition at 30 ppm (Fusarium culmorum [2]): ≥ 75% | inhibition at 10 ppm (Pyrenophora graminea): 80% | inhibition at 10 ppm (Pythium splendens): ≥ 95%

CCCC[S+]([O-])c1sc(C#N)cc1C#N (stereo not drawn) [(80)]
inhibition at 30 ppm (Fusarium culmorum [2]): ≥ 75% | inhibition at 30 ppm (Rhizoctonia solani): ≥ 75% | inhibition at 10 ppm (Pythium splendens): ≥ 95%

N#Cc1sc([S+]([O-])c2ccccc2)c(C#N)c1Cl (stereo not drawn) [(82), 2 phenylsulphinyl-3,5-dicyano-4-chlorothiophene]
inhibition at 30 ppm (Fusarium culmorum [2]): ≥ 75% | inhibition at 10 ppm (Pyrenophora graminea): 80% | inhibition at 10 ppm (Pythium splendens): ≥ 95%

CCCC[S+]([O-])c1sc(C(C)=O)c(Br)c1C#N (stereo not drawn) [(86), 2-n-butylsulphinyl-3-cyano-4-bromo-5-acetylthiophene]
inhibition at 30 ppm (Fusarium culmorum [2]): ≥ 75% | inhibition at 10 ppm (Pyrenophora graminea): 76% | inhibition at 30 ppm (Leptosphaeria nodorum): ≥ 85% | inhibition at 10 ppm (Pythium splendens): ≥ 95%

CCCCS(=O)(=O)c1sc(C#N)c(Br)c1C#N [(89), 2-n-butylsulphonyl 3,5-dicyano-4-bromothiophene]
inhibition at 30 ppm (Fusarium culmorum [2]): ≥ 75% | inhibition at 30 ppm (Leptosphaeria nodorum): ≥ 85% | inhibition at 10 ppm (Pythium splendens): ≥ 95%

CC[S+]([O-])c1sc(C#N)c(Oc2ccccc2)c1C#N (stereo not drawn) [(94), 2-ethylsulphinyl-3,5-dicyano-4-phenoxythiophene]
inhibition at 10 ppm (Pyrenophora graminea): 70% | inhibition at 30 ppm (Leptosphaeria nodorum): ≥ 85% | inhibition at 10 ppm (Pythium splendens): ≥ 95%
